Test system: SW 1271 complex spheroids, viability
Assay: Anticancer human tumor SW 1271 cell line growth inhibition [LSD1];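 further: spheroids exposed to agents for 7 days before luminescence read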;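 on viability, T/C: 100% = DMSO vehicle control viability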
Details: for IC50: curve of first compound; for viability, T/C: stronger effect = lower value; active means viability on the fitted dose curve at most 10% of control; inactive means the rest
Summary of the method: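 Multicellular complex spheroids of tumor cells with human endothelial cells (HUVEC) and mesenchymal stem cells; the LSD1 inhibitor iadademstat was combined with standard-of-care or investigational agents. Top concentration at or near clinical Cmax, half-log dilutions; final DMSO ≤0.25%.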

[1] = second compound 0.1 µM, first compound 0.0316 µM
[2] = second compound 0.1 µM, first compound 0.1 µM
[3] = second compound 0.1 µM, first compound 0.316 µM
[4] = second compound 0.1 µM, first compound 1 µM
[5] = second compound 0.1 µM, first compound 3.16 µM
[6] = second compound 0.1 µM, first compound 10 µM
[7] = second compound 0.316 µM, first compound 0.0316 µM
[8] = second compound 0.316 µM, first compound 0.1 µM
[9] = second compound 0.316 µM, first compound 0.316 µM
[10] = second compound 0.316 µM, first compound 1 µM
[11] = second compound 0.316 µM, first compound 3.16 µM
[12] = second compound 0.316 µM, first compound 10 µM
[13] = second compound 1 µM, first compound 0.0316 µM
[14] = second compound 1 µM, first compound 0.1 µM
[15] = second compound 1 µM, first compound 0.316 µM
[16] = second compound 1 µM, first compound 1 µM
[17] = second compound 1 µM, first compound 3.16 µM
[18] = second compound 1 µM, first compound 10 µM
[19] = second compound 3.16 µM, first compound 0.0316 µM
[20] = second compound 3.16 µM, first compound 0.1 µM
[21] = second compound 3.16 µM, first compound 0.316 µM
[22] = second compound 3.16 µM, first compound 1 µM
[23] = second compound 3.16 µM, first compound 3.16 µM
[24] = second compound 3.16 µM, first compound 10 µM
[25] = second compound 10 µM, first compound 0.0316 µM
[26] = second compound 10 µM, first compound 0.1 µM
[27] = second compound 10 µM, first compound 0.316 µM
[28] = second compound 10 µM, first compound 1 µM
[29] = second compound 10 µM, first compound 3.16 µM
[30] = second compound 10 µM, first compound 10 µM
[31] = second compound 0.1 µM, first compound 0.00316 µM
[32] = second compound 0.1 µM, first compound 0.01 µM
[33] = second compound 0.316 µM, first compound 0.00316 µM
[34] = second compound 0.316 µM, first compound 0.01 µM
[35] = second compound 1 µM, first compound 0.00316 µM
[36] = second compound 1 µM, first compound 0.01 µM
[37] = second compound 3.16 µM, first compound 0.00316 µM
[38] = second compound 3.16 µM, first compound 0.01 µM
[39] = second compound 10 µM, first compound 0.00316 µM
[40] = second compound 10 µM, first compound 0.01 µM

CC(C)c1c(-c2ccccc2)nc2c(C#N)c[nH]n2c1=O + NC1CC1c1ccc(-c2cccc(O)c2)cc1
> 10000 nM: IC50 (second compound 0.1 µM) | IC50 (second compound 0.316 µM) | IC50 (second compound 1 µM) | IC50 (second compound 10 µM)
inactive: viability, T/C [1] 71.8% | viability, T/C [2] 86% | viability, T/C [3] 78.7% | viability, T/C [4] 77.5% | viability, T/C [5] 73.2% | viability, T/C [6] 72.9% | viability, T/C [7] 74.7% | viability, T/C [8] 70.4% | viability, T/C [9] 80.9% | viability, T/C [10] 52.4% | viability, T/C [11] 58.5% | viability, T/C [12] 61.6% | viability, T/C [13] 66.4% | viability, T/C [14] 96.2% | viability, T/C [15] 78.4% | viability, T/C [16] 75% | viability, T/C [17] 58.6% | viability, T/C [18] 61.3% | viability, T/C [19] 70.5% | viability, T/C [20] 68.4% | viability, T/C [21] 70% | viability, T/C [22] 58.2% | viability, T/C [23] 58.9% | viability, T/C [24] 49.2% | viability, T/C [25] 56.6% | viability, T/C [26] 63% | viability, T/C [27] 82.6% | viability, T/C [28] 61.6% | viability, T/C [29] 50.8% | viability, T/C [30] 54.1%
9230 nM: IC50 (second compound 3.16 µM)

CC1COCCN1c1cc(-c2ccnn2C)c2ccnc(-c3ccn[nH]3)c2n1 (stereo not given) + NC1CC1c1ccc(-c2cccc(O)c2)cc1
37.2 nM: IC50 (second compound 1 µM)
23.8 nM: IC50 (second compound 0.316 µM)
36.8 nM: IC50 (second compound 3.16 µM)
inactive: viability, T/C [31] 65.2% | viability, T/C [32] 62.7% | viability, T/C [1] 51.6% | viability, T/C [2] 42.9% | viability, T/C [3] 39.4% | viability, T/C [4] 26.6% | viability, T/C [33] 55.5% | viability, T/C [34] 55.6% | viability, T/C [7] 49.7% | viability, T/C [8] 40.6% | viability, T/C [9] 39.1% | viability, T/C [10] 31% | viability, T/C [35] 63.7% | viability, T/C [36] 51.1% | viability, T/C [13] 55.4% | viability, T/C [14] 46.6% | viability, T/C [15] 30.6% | viability, T/C [16] 28.8% | viability, T/C [37] 58% | viability, T/C [38] 54.3% | viability, T/C [19] 54.7% | viability, T/C [20] 38.2% | viability, T/C [21] 40.2% | viability, T/C [22] 22.6% | viability, T/C [39] 67.1% | viability, T/C [40] 51.5% | viability, T/C [25] 50.3% | viability, T/C [26] 41.6% | viability, T/C [27] 40.2% | viability, T/C [28] 24.9%
48.5 nM: IC50 (second compound 0.1 µM)
31.3 nM: IC50 (second compound 10 µM)

COc1ccc([C@@H](O)c2cc(-c3ncnc4cc(N5CCOCC5)ccc34)c(F)cc2Cl)nn1 + NC1CC1c1ccc(-c2cccc(O)c2)cc1
355 nM: IC50 (second compound 3.16 µM)
463 nM: IC50 (second compound 0.316 µM)
inactive: viability, T/C [1] 78.6% | viability, T/C [2] 79.9% | viability, T/C [3] 55% | viability, T/C [4] 44.4% | viability, T/C [5] 31% | viability, T/C [6] 21.9% | viability, T/C [7] 76.4% | viability, T/C [8] 76.8% | viability, T/C [9] 52.2% | viability, T/C [10] 38% | viability, T/C [11] 37.3% | viability, T/C [12] 22.1% | viability, T/C [13] 72.9% | viability, T/C [14] 76.6% | viability, T/C [15] 60.3% | viability, T/C [16] 43.7% | viability, T/C [17] 31.7% | viability, T/C [18] 26.4% | viability, T/C [19] 69.5% | viability, T/C [20] 64.8% | viability, T/C [21] 49.2% | viability, T/C [22] 38.5% | viability, T/C [23] 30.5% | viability, T/C [24] 19.7% | viability, T/C [25] 60.5% | viability, T/C [26] 58.4% | viability, T/C [27] 50.3% | viability, T/C [28] 40.2% | viability, T/C [29] 27.5% | viability, T/C [30] 20.5%
664 nM: IC50 (second compound 1 µM)
351 nM: IC50 (second compound 10 µM)
616 nM: IC50 (second compound 0.1 µM)

Nc1ncn(C2CC(O)C(CO)O2)c(=O)n1 (stereo not given) + NC1CCC(NC2CC2c2ccccc2)CC1
> 1000 nM: IC50 (second compound 0.1 µM) | IC50 (second compound 0.316 µM) | IC50 (second compound 1 µM) | IC50 (second compound 3.16 µM) | IC50 (second compound 10 µM)
inactive: viability, T/C [31] 83.6% | viability, T/C [32] 95.2% | viability, T/C [1] 90% | viability, T/C [2] 74.5% | viability, T/C [3] 86.5% | viability, T/C [4] 81.3% | viability, T/C [33] 91.3% | viability, T/C [34] 82.6% | viability, T/C [7] 92.8% | viability, T/C [8] 81.3% | viability, T/C [9] 66.6% | viability, T/C [10] 76.7% | viability, T/C [35] 85.8% | viability, T/C [36] 81.2% | viability, T/C [13] 75.9% | viability, T/C [14] 76.7% | viability, T/C [15] 66.2% | viability, T/C [16] 72.4% | viability, T/C [37] 82.3% | viability, T/C [38] 93.9% | viability, T/C [19] 74.1% | viability, T/C [20] 80.6% | viability, T/C [21] 66.5% | viability, T/C [22] 77.2% | viability, T/C [39] 95.7% | viability, T/C [40] 89.9% | viability, T/C [25] 84.8% | viability, T/C [26] 81.8% | viability, T/C [27] 81.3% | viability, T/C [28] 91.1%

From PubChem BioAssay AID1918941 (Molecular Pharmacology Branch, DTP, NCI, 2023)
